Data as given in ChEMBL document CHEMBL1201862, “PubChem BioAssay data set” (2004).
Counter-ions that a name gives are not always drawn. The source made the active and inactive calls.

What was measured:
[1] = biological target: DNA damage-inducible transcript 3 protein (Mus musculus, UniProt P35639); type: functional, Cricetulus griseus
[2] = Luminescence Cell-Based Dose Retest to Confirm Inhibitors of Cancer Stem Cells. [Related pubchem assays (depositor defined):AID2717, AID2721]; type: functional; conditions: Homo sapiens
INS1 = assay: beta cell apoptosis inhibitors, cytokine rescue, dose response, luminescence, retest (AID 449756); type: functional, cell-based; conditions: Rattus norvegicus;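 further: cell death triggered by IL-1 beta plus TNF-alpha plus IFN-gamma mixture; protective hits raise ATP signal compared with cytokine alone wells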
[3] = biological target: Lysine-specific demethylase 4C (Homo sapiens, UniProt Q9H3R0); assay: GASC-1 (JMJD2C) histone demethylase inhibitors, dose response, biochemical, DELFIA europium, cherry-picked samples (AID 488835); type: functional
X-box-binding protein 1 = biological target: T1, X-box-binding protein 1 (Homo sapiens, UniProt P17861); type: functional, Cricetulus griseus;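 further: confirmatory dose-response counter-screen serving a CHOP assay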
T1 sequence (P17861 whole entry): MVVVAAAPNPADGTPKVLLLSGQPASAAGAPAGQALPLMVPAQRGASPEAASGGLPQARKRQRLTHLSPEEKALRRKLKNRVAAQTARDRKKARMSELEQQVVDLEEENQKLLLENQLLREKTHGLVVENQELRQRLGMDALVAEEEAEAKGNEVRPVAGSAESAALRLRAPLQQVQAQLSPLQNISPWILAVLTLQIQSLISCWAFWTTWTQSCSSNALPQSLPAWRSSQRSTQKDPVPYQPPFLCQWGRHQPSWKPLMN

[4] = biological target: T2, Voltage-gated N-type calcium channel alpha-1B subunit/Amyloid beta A4 precursor protein-binding family A member 1 (Homo sapiens, UniProt Q00975+Q02410); assay: disruptors of Mint-PDZ/N-type channel peptide interaction – biochemical, HTRF, SAR follow-up (AID 2489); type: functional
[5] = biological target: T2, Voltage-gated N-type calcium channel alpha-1B subunit/Amyloid beta A4 precursor protein-binding family A member 1; assay: disruptors of Mint-PDZ/N-type channel peptide interaction – biochemical, HTRF, set 2, SAR follow-up (AID 434980); type: functional
SUMO E1/E2 = SUMO E1/E2 (Homo sapiens, UniProt P63279+Q9UBE0+Q9UBT2); assay: SAR analysis of SUMOylation using HTRF in an in-Vitro dose response assay. [Related pubchem assays (depositor defined):AID2006, AID2011, AID2018, AID2069, AID2658]; type: functional
[6] = biological target: T3, Ubiquitin-conjugating enzyme E2 N (Homo sapiens, UniProt P61088); type: functional
T3 sequence (P61088 whole entry): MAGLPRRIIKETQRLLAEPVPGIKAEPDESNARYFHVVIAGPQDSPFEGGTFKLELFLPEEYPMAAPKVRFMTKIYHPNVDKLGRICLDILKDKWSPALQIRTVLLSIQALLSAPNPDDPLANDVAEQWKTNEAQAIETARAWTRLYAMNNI

Bcl-2-related protein A1 = biological target: T4, Bcl-2-related protein A1 (Mus musculus, UniProt Q07440); type: functional;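 further: confirmatory dose–response counterscreen on Bfl-1, used to check hits from a UBC13 polyubiquitin inhibitor campaign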
T4 sequence (Q07440 whole entry): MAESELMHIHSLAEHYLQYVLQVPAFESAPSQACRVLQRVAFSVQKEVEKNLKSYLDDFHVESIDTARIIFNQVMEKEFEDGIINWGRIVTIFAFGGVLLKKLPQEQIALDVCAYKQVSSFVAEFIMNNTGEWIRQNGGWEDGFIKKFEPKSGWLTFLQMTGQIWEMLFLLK

[7] = biological target: T3, Ubiquitin-conjugating enzyme E2 N; type: functional; remark: listed apart in the source
[8] = biological target: T5, Dual specificity protein phosphatase 6 (Rattus norvegicus, UniProt Q64346); assay: MKP-3 phosphatase inhibitors, primary screen, biochemical, rat enzyme, in vitro (AID 425)
T5 sequence (Q64346 whole entry): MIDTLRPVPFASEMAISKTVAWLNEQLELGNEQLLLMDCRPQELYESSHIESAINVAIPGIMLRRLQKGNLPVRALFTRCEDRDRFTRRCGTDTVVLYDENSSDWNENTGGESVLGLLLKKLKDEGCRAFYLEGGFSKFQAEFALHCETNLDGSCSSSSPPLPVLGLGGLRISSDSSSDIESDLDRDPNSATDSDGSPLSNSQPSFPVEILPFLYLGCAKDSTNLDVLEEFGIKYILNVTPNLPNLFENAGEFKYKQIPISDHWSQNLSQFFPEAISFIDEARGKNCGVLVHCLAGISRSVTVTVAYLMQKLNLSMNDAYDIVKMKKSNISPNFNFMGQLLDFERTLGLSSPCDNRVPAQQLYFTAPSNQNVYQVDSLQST

[9] = biological target: T6, Dual specificity protein phosphatase 3 (Homo sapiens, UniProt P51452); assay: VHR1 phosphatase inhibitors, primary screen, biochemical, absorbance, uHTS (AID 1654)
[10] = biological target: T7, Polyadenylate-binding protein 1 (Homo sapiens, UniProt P11940); assay: PABP1 MLLE–PAM2 binding inhibitor potency, dose response, biochemical, fluorescence polarization, FITC-PAM2 peptide (AID 602259); type: functional; conditions: read-out: IC50_Mean
[11] = biological target: T6, Dual specificity protein phosphatase 3; assay: VHR1 phosphatase inhibitors, biochemical (AID 1878)
[12] = biological target: T7, Polyadenylate-binding protein 1; assay: PABP1 MLLE–PAM2 interaction inhibitors, dose response, miRNA deadenylation inhibitor project, biochemical, fluorescence polarization, Cy5-PAM2 peptide, secondary (AID 602260); type: functional; conditions: read-out: IC50_Mean
Cytochrome P450 2D6 = Cytochrome P450 2D6 (Homo sapiens, UniProt P10635);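 further: CYP2D6 member of a cytochrome P450 panel assay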
HEK293 [13] = assay: cells; conditions: Homo sapiens
HEK293 [14] = assay: cells; conditions: Homo sapiens; remark: listed apart in the source
Paired box protein Pax-8 = Paired box protein Pax-8 (Homo sapiens, UniProt Q06710); assay: inhibitors of PAX8-driven TPO luciferase reporter, dose response, RMG-I cells, cherry-pick (AID 687027); type: functional, cell-based;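 further: luciferase reporter driven by Pax8 target thyroperoxidase promoter measured by SteadyGlo luminescence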
Cytochrome P450 2C9 = Cytochrome P450 2C9 (Homo sapiens, UniProt P11712)
[15] = biological target: Voltage-dependent T-type calcium channel subunit alpha-1H (Homo sapiens, UniProt O95180); assay: Cav3.2 T-type channel inhibitors, synthesized analogs, SAR follow-up, cell-based, synthetic library set 2, HEK293 HH8, Fluo-4 (AID 493023); type: functional
[16] = biological target: Sphingosine 1-phosphate receptor 1 (Homo sapiens, UniProt P21453); assay: Late stage counterscreen assay for S1P4 antagonists: Fluorescence dose response cell-based screening assay for antagonists of the Sphingosine 1-Phosphate Receptor 1 (S1P1). [Related pubchem assays (depositor defined):AID1510, AID1524, AID1692, AID1853, AID2332, AID489009, AID489017]; type: functional
[17] = biological target: Sphingosine 1-phosphate receptor 3 (Homo sapiens, UniProt Q99500); assay: Late stage counterscreen assay for S1P4 antagonists: Fluorescence dose response cell-based screening assay for antagonists of the Sphingosine 1-Phosphate Receptor 3 (S1P3). [Related pubchem assays (depositor defined):AID1510, AID1524, AID1692, AID1853, AID2332, AID489009, AID489017]; type: functional
[18] = biological target: Sphingosine 1-phosphate receptor 5 (Homo sapiens, UniProt Q9H228); assay: Late stage counterscreen assay for S1P4 antagonists: Fluorescence dose response cell-based screening assay for antagonists of the Sphingosine 1-Phosphate Receptor 5 (S1P5). [Related pubchem assays (depositor defined):AID1510, AID1524, AID1692, AID1853, AID2332, AID489009, AID489017]; type: functional
[19] = biological target: Sphingosine 1-phosphate receptor 2 (Homo sapiens, UniProt O95136); assay: Late stage counterscreen assay for S1P4 antagonists: Fluorescence dose response cell-based screening assay for antagonists of the Sphingosine 1-Phosphate Receptor 2 (S1P2). [Related pubchem assays (depositor defined):AID1510, AID1524, AID1692, AID1853, AID2332, AID489009, AID489017]; type: functional
[20] = biological target: T8, Alkaline phosphatase, tissue-nonspecific isozyme (Homo sapiens, UniProt P05186); assay: TNAP enzyme activators, dose response, selectivity assay for human IAP activator project, biochemical, TNAP isozyme, human IAP uHTS hits (AID 488886); type: functional;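 further: potency of compounds raising TNAP activity as a selectivity check on IAP activators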
T8 sequence (P05186 whole entry): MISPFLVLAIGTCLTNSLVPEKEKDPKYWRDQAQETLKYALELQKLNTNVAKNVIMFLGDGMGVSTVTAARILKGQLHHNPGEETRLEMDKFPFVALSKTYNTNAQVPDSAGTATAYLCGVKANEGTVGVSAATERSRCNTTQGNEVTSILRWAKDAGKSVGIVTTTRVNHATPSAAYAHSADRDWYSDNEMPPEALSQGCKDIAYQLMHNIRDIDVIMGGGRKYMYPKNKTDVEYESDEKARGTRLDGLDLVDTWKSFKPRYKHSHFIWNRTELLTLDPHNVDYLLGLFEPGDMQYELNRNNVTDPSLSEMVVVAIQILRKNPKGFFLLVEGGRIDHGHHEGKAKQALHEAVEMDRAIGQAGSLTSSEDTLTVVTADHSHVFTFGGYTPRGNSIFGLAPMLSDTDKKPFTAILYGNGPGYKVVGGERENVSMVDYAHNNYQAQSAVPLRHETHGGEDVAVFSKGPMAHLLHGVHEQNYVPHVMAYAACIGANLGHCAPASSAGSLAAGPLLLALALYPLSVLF

[21] = biological target: T9, Intestinal-type alkaline phosphatase (Homo sapiens, UniProt P09923); assay: human intestinal alkaline phosphatase activators, dose response, biochemical, luminescence, uHTS hits (AID 463120); type: functional
[22] = biological target: T9, Intestinal-type alkaline phosphatase; assay: human IAP activators, dose response, biochemical, luminescent, uHTS hits, set 2 (AID 488817); type: functional;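 further: potency of activators that raise enzyme activity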
[23] = biological target: Intestinal-type alkaline phosphatase (Mus musculus, UniProt P24822); assay: PubChem AID 488875; type: functional
[24] = biological target: Eukaryotic translation initiation factor 4H (Homo sapiens, UniProt Q15056); assay: eIF4H inhibition in translation initiation, SAR follow-up (AID 435011); type: functional
[25] = biological target: T7, Polyadenylate-binding protein 1; assay: PABP inhibition in translation initiation, SAR follow-up (AID 435018); type: functional
SUMO-activating enzyme = SUMO-activating enzyme (Homo sapiens, UniProt Q9UBT2); assay: SUMOylation inhibitor hit validation, confirmation, SUMOylation inhibitor project, biochemical, AlphaScreen (AID 2018); type: functional

T7 sequence (P11940 whole entry): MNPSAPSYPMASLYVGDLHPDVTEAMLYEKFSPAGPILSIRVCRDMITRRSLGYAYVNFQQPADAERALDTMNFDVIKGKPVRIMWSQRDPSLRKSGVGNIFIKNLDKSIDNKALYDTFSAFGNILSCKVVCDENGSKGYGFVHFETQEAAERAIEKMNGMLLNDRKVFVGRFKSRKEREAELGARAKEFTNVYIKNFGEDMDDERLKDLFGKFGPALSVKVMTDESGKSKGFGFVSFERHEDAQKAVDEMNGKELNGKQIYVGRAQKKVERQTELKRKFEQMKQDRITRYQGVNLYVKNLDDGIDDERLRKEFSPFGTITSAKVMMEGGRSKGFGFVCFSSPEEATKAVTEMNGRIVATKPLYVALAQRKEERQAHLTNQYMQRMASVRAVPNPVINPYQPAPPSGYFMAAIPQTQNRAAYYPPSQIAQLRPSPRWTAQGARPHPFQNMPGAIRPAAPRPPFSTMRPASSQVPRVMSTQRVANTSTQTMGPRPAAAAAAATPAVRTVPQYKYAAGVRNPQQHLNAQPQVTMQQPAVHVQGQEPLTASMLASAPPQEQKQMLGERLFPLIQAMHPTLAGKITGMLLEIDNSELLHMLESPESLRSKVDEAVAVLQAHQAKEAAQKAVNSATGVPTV
Chain of Voltage-dependent T-type calcium channel subunit alpha-1H (O95180 whole entry): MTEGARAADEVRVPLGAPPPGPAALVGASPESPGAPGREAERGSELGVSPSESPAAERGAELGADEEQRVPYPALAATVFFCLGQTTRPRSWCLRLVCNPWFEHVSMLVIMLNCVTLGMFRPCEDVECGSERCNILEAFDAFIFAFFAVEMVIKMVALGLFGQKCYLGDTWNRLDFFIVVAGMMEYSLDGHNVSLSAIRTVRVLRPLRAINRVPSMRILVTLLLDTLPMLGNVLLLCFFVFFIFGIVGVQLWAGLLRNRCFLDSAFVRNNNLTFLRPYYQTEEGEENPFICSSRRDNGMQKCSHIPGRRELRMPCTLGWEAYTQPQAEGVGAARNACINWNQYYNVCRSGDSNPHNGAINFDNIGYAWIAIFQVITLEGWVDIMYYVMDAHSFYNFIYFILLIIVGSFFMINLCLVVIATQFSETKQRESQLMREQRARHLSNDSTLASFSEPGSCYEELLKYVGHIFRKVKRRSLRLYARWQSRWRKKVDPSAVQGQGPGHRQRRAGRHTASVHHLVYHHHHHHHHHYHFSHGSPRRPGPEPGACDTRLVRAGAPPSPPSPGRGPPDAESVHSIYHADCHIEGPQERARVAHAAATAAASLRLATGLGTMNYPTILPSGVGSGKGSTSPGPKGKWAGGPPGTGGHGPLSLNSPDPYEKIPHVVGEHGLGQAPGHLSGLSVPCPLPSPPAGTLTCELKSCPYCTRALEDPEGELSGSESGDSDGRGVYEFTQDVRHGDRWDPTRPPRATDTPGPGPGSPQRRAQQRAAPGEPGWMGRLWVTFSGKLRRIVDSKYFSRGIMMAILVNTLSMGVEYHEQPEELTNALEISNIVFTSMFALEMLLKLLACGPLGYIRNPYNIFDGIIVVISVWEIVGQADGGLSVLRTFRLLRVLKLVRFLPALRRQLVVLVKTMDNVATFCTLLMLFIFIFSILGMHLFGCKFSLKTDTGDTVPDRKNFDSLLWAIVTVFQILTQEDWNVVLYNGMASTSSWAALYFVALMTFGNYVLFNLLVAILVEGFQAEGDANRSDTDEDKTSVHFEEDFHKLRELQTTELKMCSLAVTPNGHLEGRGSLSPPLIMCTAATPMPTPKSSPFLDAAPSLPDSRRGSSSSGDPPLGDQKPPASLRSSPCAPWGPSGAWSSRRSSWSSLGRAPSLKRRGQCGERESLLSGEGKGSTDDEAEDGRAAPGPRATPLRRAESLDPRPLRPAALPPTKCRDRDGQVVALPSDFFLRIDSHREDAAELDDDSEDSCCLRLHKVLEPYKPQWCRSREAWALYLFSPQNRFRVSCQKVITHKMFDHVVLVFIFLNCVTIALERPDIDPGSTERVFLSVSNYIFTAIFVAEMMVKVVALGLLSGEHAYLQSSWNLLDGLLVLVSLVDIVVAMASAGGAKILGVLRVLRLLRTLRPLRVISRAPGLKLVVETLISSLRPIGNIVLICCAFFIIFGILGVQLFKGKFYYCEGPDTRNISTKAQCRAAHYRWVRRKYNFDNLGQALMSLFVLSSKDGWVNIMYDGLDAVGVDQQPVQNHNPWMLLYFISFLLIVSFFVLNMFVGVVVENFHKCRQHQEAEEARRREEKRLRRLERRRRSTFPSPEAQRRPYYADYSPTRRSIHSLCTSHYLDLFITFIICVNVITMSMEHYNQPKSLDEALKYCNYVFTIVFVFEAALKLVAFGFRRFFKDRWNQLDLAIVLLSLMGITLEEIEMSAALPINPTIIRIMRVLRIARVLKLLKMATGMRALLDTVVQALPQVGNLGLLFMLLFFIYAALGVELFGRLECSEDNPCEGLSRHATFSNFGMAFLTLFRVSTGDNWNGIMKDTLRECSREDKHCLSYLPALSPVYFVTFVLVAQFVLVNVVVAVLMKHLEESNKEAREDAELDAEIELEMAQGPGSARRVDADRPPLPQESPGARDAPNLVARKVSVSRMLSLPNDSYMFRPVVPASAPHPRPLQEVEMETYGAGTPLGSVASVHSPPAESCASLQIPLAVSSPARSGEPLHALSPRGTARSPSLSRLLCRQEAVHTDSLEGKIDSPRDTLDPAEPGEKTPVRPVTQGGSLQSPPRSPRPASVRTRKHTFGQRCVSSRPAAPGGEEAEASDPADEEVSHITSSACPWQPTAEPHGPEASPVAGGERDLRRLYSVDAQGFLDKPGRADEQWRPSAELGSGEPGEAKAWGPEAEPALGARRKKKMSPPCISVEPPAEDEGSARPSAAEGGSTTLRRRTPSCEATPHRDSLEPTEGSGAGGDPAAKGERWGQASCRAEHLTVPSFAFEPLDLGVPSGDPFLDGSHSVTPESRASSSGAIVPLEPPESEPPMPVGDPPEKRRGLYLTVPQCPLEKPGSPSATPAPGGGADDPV
Chain of Lysine-specific demethylase 4C (Q9H3R0 whole entry): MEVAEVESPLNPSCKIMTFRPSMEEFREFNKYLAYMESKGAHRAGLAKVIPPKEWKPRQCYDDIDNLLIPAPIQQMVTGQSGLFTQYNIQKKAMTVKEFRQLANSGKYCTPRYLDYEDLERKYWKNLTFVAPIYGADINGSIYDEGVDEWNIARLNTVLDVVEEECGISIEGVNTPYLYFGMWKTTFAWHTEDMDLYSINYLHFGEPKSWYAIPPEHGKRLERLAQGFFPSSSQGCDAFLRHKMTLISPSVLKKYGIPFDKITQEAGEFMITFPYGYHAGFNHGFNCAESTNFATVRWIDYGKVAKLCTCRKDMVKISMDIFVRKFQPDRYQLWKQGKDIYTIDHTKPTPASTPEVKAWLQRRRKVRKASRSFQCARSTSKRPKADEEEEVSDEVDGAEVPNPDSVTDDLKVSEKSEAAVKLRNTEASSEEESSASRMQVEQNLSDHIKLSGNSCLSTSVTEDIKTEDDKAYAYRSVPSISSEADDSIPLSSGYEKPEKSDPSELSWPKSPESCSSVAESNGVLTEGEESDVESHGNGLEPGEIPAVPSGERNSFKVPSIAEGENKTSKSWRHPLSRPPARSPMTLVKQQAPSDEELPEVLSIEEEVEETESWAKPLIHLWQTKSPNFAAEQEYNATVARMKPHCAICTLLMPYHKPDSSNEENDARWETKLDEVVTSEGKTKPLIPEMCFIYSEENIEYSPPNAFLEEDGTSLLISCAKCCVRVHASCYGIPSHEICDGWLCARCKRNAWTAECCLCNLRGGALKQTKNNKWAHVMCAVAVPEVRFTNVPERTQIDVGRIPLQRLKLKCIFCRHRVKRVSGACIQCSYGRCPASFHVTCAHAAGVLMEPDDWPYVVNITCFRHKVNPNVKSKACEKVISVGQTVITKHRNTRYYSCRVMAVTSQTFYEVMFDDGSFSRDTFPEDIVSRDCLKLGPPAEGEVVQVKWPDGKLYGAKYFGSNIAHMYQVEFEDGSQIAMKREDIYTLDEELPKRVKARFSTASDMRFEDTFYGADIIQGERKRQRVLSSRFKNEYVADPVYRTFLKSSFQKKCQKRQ
T6 sequence (P51452 whole entry): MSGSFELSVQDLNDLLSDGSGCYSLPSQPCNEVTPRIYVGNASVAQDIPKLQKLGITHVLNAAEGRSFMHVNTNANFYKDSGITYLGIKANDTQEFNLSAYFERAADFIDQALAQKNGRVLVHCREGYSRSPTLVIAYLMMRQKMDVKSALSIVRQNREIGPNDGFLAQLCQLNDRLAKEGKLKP
Chain of Cytochrome P450 2D6 (P10635 whole entry): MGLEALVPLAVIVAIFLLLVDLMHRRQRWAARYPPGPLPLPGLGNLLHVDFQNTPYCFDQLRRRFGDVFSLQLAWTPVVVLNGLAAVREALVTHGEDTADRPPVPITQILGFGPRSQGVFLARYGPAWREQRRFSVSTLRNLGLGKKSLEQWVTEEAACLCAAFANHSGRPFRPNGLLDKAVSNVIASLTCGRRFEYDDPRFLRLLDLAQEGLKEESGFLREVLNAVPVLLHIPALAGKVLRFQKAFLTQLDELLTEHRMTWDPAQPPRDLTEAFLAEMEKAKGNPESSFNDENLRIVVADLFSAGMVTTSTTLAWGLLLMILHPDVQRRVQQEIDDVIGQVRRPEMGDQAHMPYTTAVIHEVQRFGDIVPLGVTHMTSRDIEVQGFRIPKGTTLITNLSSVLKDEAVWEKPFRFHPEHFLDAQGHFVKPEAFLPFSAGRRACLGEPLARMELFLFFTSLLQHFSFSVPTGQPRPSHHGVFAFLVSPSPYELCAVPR
Chain of DNA damage-inducible transcript 3 protein (P35639 whole entry): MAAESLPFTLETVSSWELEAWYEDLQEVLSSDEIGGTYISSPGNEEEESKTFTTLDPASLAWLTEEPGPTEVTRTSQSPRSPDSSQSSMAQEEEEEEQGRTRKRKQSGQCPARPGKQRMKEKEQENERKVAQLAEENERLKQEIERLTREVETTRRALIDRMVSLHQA

## COc1ccc(-c2nn(-c3ccccc3)cc2/C=N/N2C(=O)CSC2=S)cc1
[1]
  Absolute IC50 (CHOP): 10 µM
[2]
  AC50: 2.08 µM (active)
INS1
  AC50: 4.38 µM (active)

## CC(C)CN(C(=O)c1ccc(N2CCCC2=O)cc1)c1c(N)n(Cc2ccccc2)c(=O)[nH]c1=O
[3]
  AC50: > 60 µM (inactive)

## CCCCC1=CC2=C(c3ccco3)C(=O)C(C)(OC(=O)c3ccc(OC)cc3)C(=O)C2=CN1Cc1ccccc1 (stereo not given)
[1]
  Absolute IC50 (CHOP): 10 µM
X-box-binding protein 1
  Absolute IC50 (XBP1): 10 µM

## O=C(COC(=O)c1cc(-c2ccco2)nc2ccccc12)NCc1ccccc1
[4]
  IC50: > 56.8 µM (inactive)
[5]
  IC50: > 56.8 µM (inactive)
SUMO E1/E2
  IC50: 4.07 µM (active)

## NCCCNCCCCNCCCN [SPERMINE TETRAHYDROCHLORIDE]
[6]
  IC50: 14.3 µM (active)
Bcl-2-related protein A1
  IC50: > 20 µM (inactive)
[7]
  IC50: 15.6 µM (active)

## CN1C(=O)C(Cc2ccc(OCc3ccccc3)cc2)C(=O)N(C)C1=O
[3]
  AC50: 9.21 µM (active)

## S=C(NCCCN1CCOCC1)NCCCN1CCOCC1
[8]
  IC50: > 158 µM (not active)
[9]
  IC50: 2.61 µM (active)
[10]
  IC50: > 66 µM (inactive)
[11]
  IC50: 6.17 µM (active)
[12]
  IC50: > 66 µM (inactive)

## CC1CCN(C(=O)CSc2nc3cccnc3n2C)CC1
Cytochrome P450 2D6
  AC50: inconclusive

## CCOC(=O)c1c(-c2ccc(F)cc2)csc1NC(=O)CN1C(=O)NC2(CCCCC2C)C1=O (stereo not given)
HEK293 [13]
  EC50: > 59.6 µM (inactive)
HEK293 [14]
  EC50: > 59.6 µM (inactive)
Paired box protein Pax-8
  AC50: 4.11 µM (active)

## Cn1c(SCC(=O)N/N=C/C=C\c2ccco2)nc2ccccc21
Cytochrome P450 2C9
  AC50: inconclusive
Cytochrome P450 2D6
  AC50: inconclusive

## CC(C)(C)CCN1CCC[C@H](NC(=O)COc2ccc(F)c(Cl)c2)C1
[15]
  EC50: 10 µM (active)

## CC(C)c1cccc(C(C)C)c1NC(=O)c1ccc(-c2cc(Cl)ccc2Cl)o1
[16]
  IC50: > 25 µM (inactive)
[17]
  IC50: > 25 µM (inactive)
[18]
  IC50: 12.7 µM (inactive)
[19]
  IC50: > 25 µM (inactive)

## Cn1c(/C(C#N)=C(\O)c2ccc(Br)s2)nc2ccccc21
[20]
  EC50: 45 µM (active)
[21]
  EC50: 77 µM (active)
[22]
  EC50: 60 µM (active)
[23]
  EC50: > 100 µM (inactive)

## O=C(NCCCN1CCN(c2ccccc2)CC1)C1CCCN(c2ncnc3c2nc2n3CCCCC2)C1 (stereo not given)
[6]
  IC50: 7.51 µM (active)
Bcl-2-related protein A1
  IC50: > 20 µM (inactive)
[7]
  IC50: 7.05 µM (active)

## CCOC(=O)Cc1c(Sc2ccccc2)c2ccccc2n1C
[24]
  IC50: > 100 µM (inactive)
[25]
  IC50: > 100 µM (inactive)

## O=C(NC1CCC2CN(Cc3ccccc3)CC21)c1cc(Cl)cc(Cl)c1 (stereo not given)
[15]
  EC50: 4 µM (active)

## Nc1c(C(=O)NCc2ccco2)c2nc3ccccc3nc2n1CCc1ccccc1
SUMO-activating enzyme
  IC50: 1.87 µM (active)
